Source: PMC7153024, “New 8-Nitroquinolinone Derivative Displaying Submicromolar in Vitro Activities against Both Trypanosoma brucei and cruzi” (ACS Medicinal Chemistry Letters, 2020)
“And” between values parts separate entries of the source, which are not always exact repeats. Equal entries are not always repeated. “Also recorded” adds a separate entry of the source. Where two headings read alike, the source gives them in different places.

Columns and labels:
[1] = tested on: HepG2 cell line; conditions: read-out: Cytotoxicity HepG2 CC50, cited from earlier work
[2] = tested on: L. infantum axenic amastigotes; test: Antileishmanial activity on L. infantum axenic amastigotes; assay type: cell-based, Leishmania infantum; conditions: for Activity toward L. infantum (in words): axenic amastigotes
Method: Experiments were performed at room temperature
The supporting electrolyte
The redox potentials measured (V/SCE) correspond […]
in a ventilated flask to transform promastigotes into axenic amastigotes. The amastigote stage was checked both by electron microscopy (short flagellum with small bulbous tip extending beyond a spherical cell body) and RT-PCR for confirming the overexpression of ATG8 and amastin genes in amastigotes, compared to promastigotes. The effects of the tested compounds on the growth of L. infantum axenic amastigotes were assessed as follows. L. infantum amastigotes were incubated at a density of 2 × 10^6 parasites/mL in sterile 96-well plates with various concentrations of compounds dissolved in DMSO (final concentration less than 0.5% v/v), in duplicate. Appropriate controls DMSO, amphotericin B, miltefosine and fexinidazole (reference drugs purchased from Sigma Aldrich) were added to each set of experiments. After a 48 h incubation period at 37 °C, each plate-well was then microscopically-examined to detect any precipitate formation. To estimate the luciferase activity of axenic amastigotes, 80 µL of each well were transferred to white 96-well plates, Steady Glow® reagent (Promega) was added according to manufacturer's instructions, and plates were incubated for 2 min. The luminescence was measured in Microbeta Luminescence Counter (PerkinElmer). Efficient […]
metabolic activity of L. infantum amastigotes compared to control. EC 50 values were calculated by non- […]
values represent the mean of three independent experiments.
Antileishmanial activity on L. donovani promastigotes NTR1 and NTR2 over-expressing strain.
Cell lines and culture conditions: The clonal Leishmania donovani cell line LdBOB (derived from MHOM/SD/62/1S-CL2D) was grown as promastigotes at 26 °C in modified M199 media, as previously described.[2] LdBOB promastigotes overexpressing NTR1 (LinJ.05.0660) and NTR2 (LinJ.12.0730) were grown in the presence of nourseothricin (100 µg/mL). To examine the effects of test compounds on growth, triplicate promastigote cultures were seeded with 5 × 10^4 parasites/mL. Parasites were grown in 10 ml cultures in the presence of drug for 72 h, after which 200 μL aliquots of each culture were added to 96-well plates, 50 μM resazurin was added to each well and fluorescence (excitation of 528

[3] = tested on: T. brucei brucei trypomastigotes; test: Antitrypanosomal activity on T. brucei brucei trypomastigotes (AnTat 1.9, Alamar Blue); assay type: cell-based, Trypanosoma brucei brucei; conditions: for Antitrypanosomal activity against T. b. brucei (in words): trypomastigotes; for Selectivity index regarding T. b. brucei: HepG2 CC50 versus T. b. brucei EC50; for EC50: Trypanosoma brucei, read-out: T. b. brucei trypomastigotes EC50
[4] = in vitro; conditions: human, Cytotoxicity HepG2 CC50
[5] = Redox potentials by cyclic voltammetry in DMSO; conditions: 13 vs hit 2; 9, hit 1 and 2 vs pharmacophore; 10 vs 9; 5 vs 2
[6] = PAMPA assay using a blood-brain barrier (BBB) model; assay type: in vitro ADME; conditions: tested concentration 100 µM, pH 7.4
[7] = Tolerance in the mouse after oral administration
[8] = tested on: Trypanosoma brucei brucei trypomastigotes wild type; test: T. brucei trypomastigotes, wild type strain (S427); assay type: cell-based
Method: Cells overexpressing NTR were
Cell densities were determined after culture for 72 h, as previously described. EC50 values were determined using GraFit as described above.
Cytotoxic evaluation on HepG2 cell line.
Briefly, cells (1 × 10^5 cells/mL) in 100
Each plate-well was then microscope-examined […]
for 2 h at 37 °C and 5% CO2. […]
added to dissolve the resulting formazan crystals. Plates were shaken vigorously (300 rpm) for 5 min.

[9] = tested on: HepG2 cell line; conditions: human, 72 h
[10] = tested on: HepG2 cell line; test: Alkaline comet assay on HepG2 cells; assay type: cell-based, human; conditions: HepG2, 1 and 10 μM, 2 or 72 h of incubation
Description: Even though many safe nitroaromatic molecules are today on the market (for example, antiprotozoal 5-nitroimidazoles such as metronidazole, several antihypertensive dihydropyridines like nicardipine, some benzodiazepines like loprazolam, anti-Parkinson’s catechol O-methyltransferase (COMT) inhibitors like entacapone, antiandrogens like flutamide, anti-inflammatory nimesulide, immunomodulating azathioprine, anticoagulant acenocoumarol, anthelminthic niclosamide, etc.) or in clinical trials (for instance, delamanid), drugs including a nitroaromatic moiety suffer from a bad reputation as possible mutagenic or genotoxic molecules, which narrows their pharmaceutical development.[29] The Ames test is the most commonly used assay to evaluate the mutagenic potential of compounds, using Salmonella typhimurium strains. […] Thus it is accepted that the comet assay or the micronucleus assay are more pertinent methods to evaluate the genotoxic potential of nitroaromatic compounds. For example, fexinidazole is positive in the Ames test but negative in the micronucleus assay.[31] A comet assay was then performed on the HepG2 cell line with hit compound 12, using methylmethanesulfonate (MMS) as a positive control (see the Supporting Information).
Electrophoresis (with a solution which contained
28 V (resulting in 0.8 V/cm).
After staining with SYBR®
Prague Czech Republic). […] The median […]

[11] = In vivo pharmacokinetics in the mouse after oral administration; conditions: oral 25 mg/kg
Method: Finally, the in vivo pharmacokinetic parameters were determined in the mouse, after oral administration at 25 mg/kg in a mixture of 5% Tween 80 and 95% of 0.5% carboxymethylcellulose in water, by using the QuEChERS method.[32] Monolix Lixoft software was used to analyze the data by a noncompartmental model to fit pharmacokinetics parameters.[33] […]
acetonitrile with 0.1% formic acid. […] The […]
decrease to 2% (B); 2.6 < t < 4 min, 2% (B). Carbamazepine, oxazepam, warfarine and diclofenac are […]
The unbound fraction (fu) is […]
internal standard (propranolol 200 nM).
= 350 μL and Vplasma = 200 μL).
All animals were kept under the same
3, 6, 9, 12, and 24h after administration. Blood samples were stored frozen until required for assay.
Sample preparation for spectrometry analysis
Megazol was used like the internal standard (IS). LC-MS Optima grade Acetonitrile (ACN) and […]
sesquihydrate) were supplied by VWR.

[12] = tested on: human albumin; test: Human albumin binding assay; assay type: in vitro ADME
Method: are kept at 4 °C for immediate analysis or placed at -80 °C in case of postponement of the analysis.
Controls (t0 and tfinal) in triplicate are prepared by incubation of the internal standard with microsomes denatured by acetonitrile. The LC-MS used for this study is a Waters® Acquity I-Class / Xevo TQD, equipped with a Waters® Acquity BEH C18 column, 50 x 2.1 mm, 1.7 μm. The mobile phases are (A) […]
The injection volume is 1 µL and […]
the flow rate is 600 µL/min.
98% (B); […]; 2.6 < t < 4 min, 2% (B). Compound 8-bromo-6- […]
chloro-3-nitro-2-(phenylsulfonylmethyl)imidazo[1,2-a]pyridine is used as internal standard. The quantification of each compound is obtained by converting the average of the ratios of the analyte/internal standard surfaces to the percentage of consumed product. The ratio of the control at t0 corresponds to 0% of product consumed. The calculation of the half-life (t1/2) of each compound in the […]
presence of microsomes is done according to the equation: . Where k is the first-order t1=k […]
degradation constant (the slope of the logarithm of compound concentration versus incubation time).
The intrinsic clearance in vitro (Cl int expressed in μL/min/mg) is calculated according to the equation:
Clint= [microsomes]. […]

[13] = tested on: Salmonella typhimurium strains; conditions: cited from earlier work
[14] = design: method as in PMID 21200426; conditions: cited from earlier work
[15] = tested on: T. brucei brucei trypomastigotes; conditions: previously reported pharmacophore and hit compounds; cited from earlier work
[16] = tested on: L. infantum axenic amastigotes; conditions: previously reported pharmacophore and hit compounds; read-out: L. infantum axenic amastigote EC50; cited from earlier work
[17] = female, Swiss, whole blood of mouse, n = 4

O=c1[nH]c2c([N+](=O)[O-])cccc2cc1Cl [A, 3-chloro-8-nitroquinolin-2(1H)-one]
CC50 ([1]; 3-chloro analogue A): 85 ± 4 µM

O=c1ccc2cc(C(F)(F)F)ccc2[nH]1 [Compound 1]
Activity toward L. infantum (in words) [2]: inactive
Antitrypanosomal activity against T. b. brucei (in words) [3]: inactive

O=c1ccc2cc(C(F)(F)F)cc([N+](=O)[O-])c2[nH]1 [Compound 2]
CC50 at 72 h [4]: 28 to 41 µM
Shift of the E° value versus the comparator compound [5]: +0.15 V

O=c1[nH]c2ccc(C(F)(F)F)cc2cc1Cl [Compound 3]
Activity toward L. infantum (in words) [2]: inactive
Antitrypanosomal activity against T. b. brucei (in words) [3]: inactive

O=c1[nH]c2ccc(C(F)(F)F)cc2cc1Br [Compound 4]
Activity toward L. infantum (in words) [2]: inactive
Antitrypanosomal activity against T. b. brucei (in words) [3]: inactive

COc1ccc2cc(C(F)(F)F)cc([N+](=O)[O-])c2n1 [Compound 5]
Activity toward L. infantum (in words) [2]: inactive
Shift of the E° value versus the comparator compound [5]: −0.36 V

O=c1[nH]c2c([N+](=O)[O-])cc(C(F)(F)F)cc2cc1Br [Compound 7]
BBB PAMPA assay Pe [6]: 45.03 ×10⁻⁶ cm/s and 45.03 ± 17.05 ×10⁻⁶ cm/s
Selectivity index (antileishmanial) ([2]; regarding L. infantum, HepG2): > 10
Selectivity index regarding T. b. brucei [3]: > 200

Nc1cc(C(F)(F)F)cc2cc(Br)c(=O)[nH]c12 [Compound 8]
Activity toward L. infantum (in words) [2]: inactive

O=c1ccc2cc(Br)cc([N+](=O)[O-])c2[nH]1 [Compound 9]
CC50 at 72 h [4]: 28 to 41 µM
Shift of the E° value versus the comparator compound [5]: +0.14 V
Selectivity index regarding T. b. brucei [3]: > 200
Times more active than 3-bromo-position isomer (hit 1) ([3]; T. b. brucei trypomastigotes): 27
Times more active than the 8-nitroquinolin-2(1H)-one pharmacophore ([3]; T. b. brucei trypomastigotes): 334

O=c1[nH]c2c([N+](=O)[O-])cc(Br)cc2cc1Br [Compound 10]
CC50 at 72 h [4]: 17 µM
Shift of the E° value versus the comparator compound [5]: +0.03 V
Selectivity index regarding T. b. brucei [3]: > 200
EC50 [3]: 0.012 to 0.05 µM

O=c1[nH]c2c([N+](=O)[O-])cc(Cl)cc2cc1Cl [Compound 11]
Selectivity index regarding T. b. brucei [3]: > 200

O=c1[nH]c2c([N+](=O)[O-])cc(Br)cc2cc1Cl [Compound 12]
BBB PAMPA assay Pe [6]: 40.51 ×10⁻⁶ cm/s and 40.51 ± 6.93 ×10⁻⁶ cm/s
Tolerance, repeated dose ([7]; 25 mg/kg once daily for 5 days): well tolerated without any adverse effect noted
Organ lesions after euthanasia ([7]; kidney, liver, brain, heart, lung): no lesions were found
Tolerance, oral dose ([7]; once daily oral dose at 25 or 50 mg/kg): well tolerated
Activity compared with nifurtimox against T. b. brucei [8]: six times more active than nifurtimox
Times more cytotoxic than reference drugs [9]: about 10
Comet assay (genotoxicity) [10]: not genotoxic; also recorded: lack of genotoxicity; also recorded: Negative
Times more active than 3-chloro-analogue A ([3]; T. b. brucei trypomastigotes): 100
EC50 [3]: 0.012 to 0.05 µM
half-life at 24 h ([11]; female, Swiss, plasma, mouse, read-out: Plasmatic half life (converted)): 2.9 h
AUC(0-inf) [11, 17]: 123 µg·h/mL
Cmax [11, 17]: 17400 ng/mL
Tmax [11, 17]: 1.5 h
half-life [11, 17]: 2.87 h
Clairance ([11]; whole blood of mouse, n = 4): 0,00768 mL/h

O=C(O)c1ccc(-c2cc3cc(Br)cc([N+](=O)[O-])c3[nH]c2=O)cc1 [Compound 13]
Albumin binding assay [12]: > 99%
BBB PAMPA assay Pe [6]: 1.27 ×10⁻⁶ cm/s and 1.27 ± 0.09 ×10⁻⁶ cm/s
Shift of the E° value versus the comparator compound [5]: +0.16 V
Selectivity index regarding T. b. brucei [3]: > 200

COc1cccc2c1C(=O)c1c(O)c3c(c(O)c1C2=O)C[C@@](O)(C(=O)CO)C[C@@H]3O[C@H]1C[C@H](N)[C@H](O)[C@H](C)O1 [Doxorubicin, reference compound]
CC50 [9]: 0.2 ± 0.02 µM

CSc1ccc(OCc2ncc([N+](=O)[O-])n2C)cc1 [Fexinidazole]
Ames test [13]: positive
Micronucleus assay [14]: negative

O=c1[nH]c2c([N+](=O)[O-])cccc2cc1Br [Hit 1]
EC50 [15]: 1.9 ± 0.4 µM
Shift of the E° value versus the comparator compound [5]: +0.09 V
CC50 ([1]; previously reported pharmacophore and hit compounds): 92 ± 13 µM
EC50 [16]: 7.1 ± 1.5 µM

O=C(O)c1ccc(-c2cc3cccc([N+](=O)[O-])c3[nH]c2=O)cc1 [Hit 2]
EC50 [16]: > 100 µM
